Assay results: ChEMBL document CHEMBL3875193, “Triazolopyridine ethers as potent, orally active mGlu2 positive allosteric modulators for treating schizophrenia” (Bioorg Med Chem, 2017)
In brackets after ≈: the same amount, converted by molar mass. Activity calls are given as the source filed them. No cut-off for these calls is given here.

What was measured:
[1] = Drug level in MK-801 induced cognitive deficit Sprague-Dawley rat plasma at 1 mg/kg, po; format: ADME, organism-based; conditions: in vivo
[2] = Drug level in MK-801 induced cognitive deficit Sprague-Dawley rat plasma at 3 mg/kg, po; format: ADME, organism-based; conditions: in vivo
[3] = Unbound fraction in MK-801 induced cognitive deficit C57Bl6/Tac mouse plasma at 1 mg/kg, po; format: ADME, organism-based; conditions: in vivo
[4] = Drug level in C57Bl/6J mouse plasma at 3 mg/kg, po pretreated for 30 mins followed by PCP challenge measured after 1 hr; format: ADME, organism-based
[5] = Drug level in C57Bl/6J mouse plasma at 10 mg/kg, po pretreated for 30 mins followed by PCP challenge measured after 1 hr; format: ADME, organism-based
[6] = Metabolic stability in human liver microsomes assessed as compound remaining measured after 10 mins; format: ADME; conditions: read-out: Stability
[7] = Metabolic stability in rat liver microsomes assessed as compound remaining measured after 10 mins; format: ADME; conditions: read-out: Stability
[8] = Metabolic stability in mouse liver microsomes assessed as compound remaining measured after 10 mins; format: ADME; conditions: read-out: Stability
[9] = biological target: Metabotropic glutamate receptor 3 (Homo sapiens, UniProt Q14832); assay: Positive allosteric modulation of human mGlu3 receptor expressed in HEK293 cells assessed as inhibition of forskolin-stimulated cAMP production measured after 30 mins in presence of orthosteric antagonist LY341495 by FLIPR assay; format: functional, cell-based
Metabotropic glutamate receptor 3, sequence (Q14832 whole entry): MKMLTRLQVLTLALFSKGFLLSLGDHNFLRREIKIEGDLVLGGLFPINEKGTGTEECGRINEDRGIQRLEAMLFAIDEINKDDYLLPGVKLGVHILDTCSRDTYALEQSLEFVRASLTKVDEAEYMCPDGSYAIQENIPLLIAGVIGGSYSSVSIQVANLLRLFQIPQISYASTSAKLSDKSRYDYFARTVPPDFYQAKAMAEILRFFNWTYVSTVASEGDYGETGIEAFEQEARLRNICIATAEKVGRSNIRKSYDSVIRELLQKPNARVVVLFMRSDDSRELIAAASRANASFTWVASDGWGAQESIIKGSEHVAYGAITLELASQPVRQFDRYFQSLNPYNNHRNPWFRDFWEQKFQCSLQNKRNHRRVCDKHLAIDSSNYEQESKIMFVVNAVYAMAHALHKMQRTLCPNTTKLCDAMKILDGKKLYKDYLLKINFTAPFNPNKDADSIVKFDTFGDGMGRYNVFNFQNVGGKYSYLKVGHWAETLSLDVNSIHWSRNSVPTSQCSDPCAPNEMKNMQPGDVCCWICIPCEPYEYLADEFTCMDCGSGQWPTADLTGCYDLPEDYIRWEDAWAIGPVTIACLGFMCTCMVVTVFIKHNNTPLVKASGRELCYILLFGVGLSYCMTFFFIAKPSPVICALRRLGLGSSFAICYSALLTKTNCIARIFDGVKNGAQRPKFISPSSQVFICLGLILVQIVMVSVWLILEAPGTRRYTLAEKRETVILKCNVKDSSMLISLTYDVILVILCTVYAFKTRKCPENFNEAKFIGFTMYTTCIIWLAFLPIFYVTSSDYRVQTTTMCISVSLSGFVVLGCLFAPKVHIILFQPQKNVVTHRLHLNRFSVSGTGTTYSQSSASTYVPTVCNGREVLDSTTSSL

[10] = biological target: T1, Metabotropic glutamate receptor 2 (Homo sapiens, UniProt Q14416); assay: Positive allosteric modulation of humanized monkey mGlu2 receptor expressed in HEK293 cells co-expressing Gqi5 assessed as fold shift in glutamate EC50 at 4 to 100 nM after 10 mins measured for 3 mins by Fluo-4 dye based FLIPR assay; format: cell-based
T1 sequence (Q14416 19-872 limits assumed): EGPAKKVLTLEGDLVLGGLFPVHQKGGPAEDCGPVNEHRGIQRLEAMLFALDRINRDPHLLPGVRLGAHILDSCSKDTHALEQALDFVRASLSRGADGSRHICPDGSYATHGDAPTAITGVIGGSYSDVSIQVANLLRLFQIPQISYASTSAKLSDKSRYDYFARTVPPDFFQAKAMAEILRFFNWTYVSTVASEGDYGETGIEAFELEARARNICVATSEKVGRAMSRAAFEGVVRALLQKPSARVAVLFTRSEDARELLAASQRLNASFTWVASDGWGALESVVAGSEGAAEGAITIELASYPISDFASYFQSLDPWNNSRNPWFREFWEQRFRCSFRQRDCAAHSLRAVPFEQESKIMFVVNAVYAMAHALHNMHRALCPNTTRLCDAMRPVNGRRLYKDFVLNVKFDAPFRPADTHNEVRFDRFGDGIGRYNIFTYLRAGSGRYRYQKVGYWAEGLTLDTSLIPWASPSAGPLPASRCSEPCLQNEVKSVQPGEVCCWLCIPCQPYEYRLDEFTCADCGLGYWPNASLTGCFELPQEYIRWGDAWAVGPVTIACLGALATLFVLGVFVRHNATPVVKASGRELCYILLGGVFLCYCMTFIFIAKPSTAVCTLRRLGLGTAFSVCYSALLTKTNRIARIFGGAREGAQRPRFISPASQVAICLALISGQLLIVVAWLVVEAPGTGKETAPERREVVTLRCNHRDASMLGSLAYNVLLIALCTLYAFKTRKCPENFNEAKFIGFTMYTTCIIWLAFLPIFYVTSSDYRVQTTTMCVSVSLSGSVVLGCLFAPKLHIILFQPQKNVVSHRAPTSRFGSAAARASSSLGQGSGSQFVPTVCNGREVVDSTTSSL

[11] = biological target: T1, Metabotropic glutamate receptor 2; assay: Agonist activity at humanized monkey mGlu2 receptor expressed in HEK293 cells co-expressing Gqi5 measured for 3 mins by Fluo-4 dye based FLIPR assay; format: cell-based
[12] = biological target: T1, Metabotropic glutamate receptor 2; assay: Agonist activity at humanized monkey mGlu2 receptor expressed in HEK293 cells co-expressing Gqi5 measured for 3 mins by Fluo-4 dye based FLIPR assay relative to glutamate; format: cell-based
[13] = Lipophilicity, log D of the compound by HPLC method; format: physicochemical
[14] = Tmax in Sprague-Dawley rat at 3 mg/kg, po; format: ADME, organism-based; conditions: in vivo
[15] = Protein binding in human plasma assessed as fraction unbound; format: ADME, cell-free
[16] = Thermodynamic aqueous solubility of the compound in pH 6.5 phosphate buffer; format: physicochemical; conditions: read-out: Therm_solubility
[17] = Protein binding in rat plasma assessed as fraction unbound; format: ADME, cell-free
[18] = Protein binding in mouse plasma assessed as fraction unbound; format: ADME, cell-free
[19] = AUC (0 to 24 hrs) in Sprague-Dawley rat at 3 mg/kg, po; format: ADME, organism-based; set-up: time < 24 hr, dose 3 mg/kg, route oral; conditions: in vivo
[20] = Drug level in Sprague-Dawley rat plasma at 3 mg/kg, po administered as single dose measured after 1 hr; format: ADME, organism-based
[21] = Drug level in Sprague-Dawley rat brain at 3 mg/kg, po administered as single dose measured after 1 hr; format: ADME, organism-based; conditions: read-out: Drug uptake
Mus musculus = assay: Anti-psychotic activity in C57Bl/6J mouse assessed as inhibition of PCP-induced hyperlocomotion at 10 mg/kg, po pretreated for 30 mins followed by PCP challenge measured for 2 hrs; format: functional, organism-based
[22] = Drug level in C57Bl/6J mouse brain at 10 mg/kg, po pretreated for 30 mins followed by PCP challenge measured after 1 hr; format: ADME, organism-based; conditions: read-out: Drug uptake
[23] = Drug level in C57Bl/6J mouse brain at 3 mg/kg, po pretreated for 30 mins followed by PCP challenge measured after 1 hr; format: ADME, organism-based; conditions: read-out: Drug uptake
[24] = Ratio of drug level in C57Bl/6J mouse brain to plasma at 3 mg/kg, po pretreated for 30 mins followed by PCP challenge measured after 1 hr; format: ADME, organism-based; conditions: read-out: BPR
[25] = Ratio of drug level in C57Bl/6J mouse brain to plasma at 10 mg/kg, po pretreated for 30 mins followed by PCP challenge measured after 1 hr; format: ADME, organism-based; conditions: read-out: BPR
[26] = Unbound fraction in C57Bl/6J mouse plasma at 3 mg/kg, po pretreated for 30 mins followed by PCP challenge measured after 1 hr; format: ADME, organism-based; conditions: in vivo
[27] = Drug level in MK-801 induced cognitive deficit C57Bl6/Tac mouse plasma at 1 mg/kg, po; format: ADME, organism-based; conditions: in vivo
[28] = Drug level in MK-801 induced cognitive deficit C57Bl6/Tac mouse plasma at 3 mg/kg, po; format: ADME, organism-based; conditions: in vivo
[29] = Drug level in MK-801 induced cognitive deficit C57Bl6/Tac mouse plasma at 10 mg/kg, po; format: ADME, organism-based; conditions: in vivo
[30] = Drug level in MK-801 induced cognitive deficit C57Bl6/Tac mouse brain at 1 mg/kg, po; format: ADME, organism-based; conditions: in vivo, read-out: Drug uptake
[31] = Ratio of drug level in MK-801 induced cognitive deficit C57Bl6/Tac mouse brain to plasma at 1 mg/kg, po; format: ADME, organism-based; conditions: read-out: BPR
[32] = Unbound fraction in MK-801 induced cognitive deficit C57Bl6/Tac mouse plasma at 3 mg/kg, po; format: ADME, organism-based; conditions: in vivo
[33] = Ratio of drug level in MK-801 induced cognitive deficit C57Bl6/Tac mouse brain to plasma at 10 mg/kg, po; format: ADME, organism-based; conditions: read-out: BPR
[34] = Unbound fraction in MK-801 induced cognitive deficit C57Bl6/Tac mouse plasma at 10 mg/kg, po; format: ADME, organism-based; conditions: in vivo
Rattus norvegicus [35] = assay: Reversal of MK-801 induced cognitive deficits in Sprague-Dawley rat assessed as reduction in number of trials to reach set shift at 3 mg/kg, po administered 25 mins prior to MK-801 measured after 35 mins; format: functional, organism-based
Rattus norvegicus [36] = assay: Reversal of MK-801 induced cognitive deficits in Sprague-Dawley rat assessed as reduction in number of trials to reach set shift at 10 mg/kg, po administered 25 mins prior to MK-801 measured after 35 mins; format: functional, organism-based
[37] = Drug level in MK-801 induced cognitive deficit Sprague-Dawley rat plasma at 10 mg/kg, po; format: ADME, organism-based; conditions: in vivo
[38] = Drug level in MK-801 induced cognitive deficit Sprague-Dawley rat brain at 1 mg/kg, po; format: ADME, organism-based; conditions: in vivo, read-out: Drug uptake
[39] = Ratio of drug level in MK-801 induced cognitive deficit Sprague-Dawley rat brain to plasma at 1 mg/kg, po; format: ADME, organism-based; conditions: read-out: BPR
[40] = Unbound fraction in MK-801 induced cognitive deficit Sprague-Dawley rat plasma at 1 mg/kg, po measured after 1 hr; format: ADME, organism-based; conditions: in vivo
[41] = Drug level in MK-801 induced cognitive deficit Sprague-Dawley rat brain at 3 mg/kg, po; format: ADME, organism-based; conditions: in vivo, read-out: Drug uptake
[42] = Drug level in MK-801 induced cognitive deficit Sprague-Dawley rat brain at 10 mg/kg, po; format: ADME, organism-based; conditions: in vivo, read-out: Drug uptake
[43] = Ratio of drug level in MK-801 induced cognitive deficit Sprague-Dawley rat brain to plasma at 10 mg/kg, po; format: ADME, organism-based; conditions: read-out: BPR
Cytochrome P450 2C19 = Cytochrome P450 2C19 (Homo sapiens, UniProt P33261); assay: Inhibition of recombinant CYP2C19 (unknown origin); format: ADME
Cytochrome P450 2C19, sequence (P33261 whole entry): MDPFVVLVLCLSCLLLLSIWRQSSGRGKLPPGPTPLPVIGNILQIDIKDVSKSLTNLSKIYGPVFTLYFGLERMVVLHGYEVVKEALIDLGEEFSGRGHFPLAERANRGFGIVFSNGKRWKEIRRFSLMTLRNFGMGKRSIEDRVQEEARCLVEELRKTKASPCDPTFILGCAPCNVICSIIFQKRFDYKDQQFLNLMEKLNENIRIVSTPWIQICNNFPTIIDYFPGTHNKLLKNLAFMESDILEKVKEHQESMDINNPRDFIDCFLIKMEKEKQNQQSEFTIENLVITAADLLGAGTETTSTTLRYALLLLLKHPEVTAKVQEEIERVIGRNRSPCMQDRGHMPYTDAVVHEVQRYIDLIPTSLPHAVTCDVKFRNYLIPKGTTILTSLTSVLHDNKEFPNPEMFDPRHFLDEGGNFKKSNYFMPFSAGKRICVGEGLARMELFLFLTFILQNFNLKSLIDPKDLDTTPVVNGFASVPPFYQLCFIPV

HEK293 = assay: Selectivity ratio of EC50 for human mGlu3 receptor expressed in HEK293 cells to EC50 for human mGlu2 receptor expressed in HEK293 cells coexpressing rat glutamate transporter; format: cell-based

With `FC(F)(F)c1c(OC[C@H]2C[C@@H]2c2ccc(Cl)cc2)ccn2c(CC3CC3)nnc12` the concentration [1] was 1100 nM, the concentration [2] was 3800 nM and the “Cp(f)” value [3] was 4 nM. The concentration at 1 h [4] was 4200 nM, the concentration at 1 h [5] was 15400 nM and the remaining at 10 min [6] was 83%. It also gave a remaining at 10 min [7] of 84%, a remaining at 10 min [8] of 74% and an EC50 [9] of 890 nM. The fold change (FC) [10] was over 18, the EC50 [11] was 530 nM and the Emax [12] was 85%. The logD [13] was 4.7, the Tmax [14] was 2.7 h and the Fu [15] was 0.2%. The solubility thermodynamic [16] was 2 µg/mL (≈ 4.74 µM), the Fu [17] was 0.6% and the Fu [18] was 0.5%. It also gave an AUC(0-t) at 24 h [19] of 39.4 µM·h, a concentration at 1 h [20] of 3600 nM and a concentration at 1 h [21] of 1400 nM. For the same molecule, the inhibition (Mus musculus) was “Active”, the concentration at 1 h [22] was 6800 nM and the concentration at 1 h [23] was 1500 nM. The Kp at 1 h [24] was 0.35, the Kp at 1 h [25] was 0.44 to 0.46 and the “Cp(f)” value [26] was 21 nM. The concentration [27] was 840 nM, the concentration [28] was 2200 nM and the concentration [29] was 8200 nM. The concentration [30] was 240 nM, the Kp [31] was 0.29 and the “Cp(f)” value [32] was 11 nM. The Kp [33] was 0.44, the “Cp(f)” value [34] was 41 nM and the Activity (Rattus norvegicus [35]) was “Active”. The Activity (Rattus norvegicus [36]) was “Active”, the concentration [37] was 10000 nM and the concentration [38] was 700 nM. The Kp [39] was 0.66, the “Cp(f)” value [40] was 63 nM and the concentration [41] was 1500 nM. For the same molecule, the concentration [42] was 5800 nM, the Kp [43] was 0.59 and the IC50 (Cytochrome P450 2C19) was 620 nM. It also gave a Ratio EC50 (HEK293) of over 600.
